Measurements reported in article PMC9976286, “Combination of In Silico and In Vitro Screening to Identify Novel Glutamate Carboxypeptidase II Inhibitors” (Journal of Chemical Information and Modeling, 2023).
Like-named read-outs stand apart in the source and are kept apart here.

Columns and labels:
[1] = system: GCPII; conditions: cited from earlier work; for Ki: read-out: Ki[nM] (54 actives, PDB ID)
[2] = target: T1, Recombinant human GCPII (Homo sapiens, UniProt Q04609); assay: In vitro GCPII inhibition assay, fluorescence-based, RP-HPLC readout (screening at 20 μM and IC50); format: biochemical; conditions: for inhibition at 20 µM: read-out: Inhibition [%] of GCPII activity
T1 construct: made in house
Description: The inhibitory potency of the selected compounds against GCPII was determined using a fluorescence-based assay developed in-house. Recombinant human GCPII purified as described previously[40],[41] (final concentration 0.02 nM) was preincubated with 20 μM test compound for the screening in 50 mM Tris-HCl, 150 mM NaCl, 0.001% C12E8 at 37 °C for 10 min. The reaction was initiated by the addition of 100 nM Glu-Glu dipeptide labeled with fluorescein (substrate)[42] in a total volume of 50 μL. Following 15 min incubation, the reaction was terminated by the addition of 5 μL of 0.1% TFA in 5% acetonitrile. […] The data were fitted using the GraphPad Prism software, and IC50 values were calculated from the inhibition curves of two independent experiments using a nonlinear analysis protocol.

[3] = listed by ChEMBL ID or PDB ID, read-out: GCPII IC50 (Fig. S20, inhibitors with subnanomolar activities)
[4] = compound at 20 μM, 100 nM fluorescein-labeled Glu-Glu dipeptide substrate
[5] = dataset of 54 GCPII ligands compiled from the PDB, read-out: IC50[nM] (54 actives, PDB ID)
[6] = dataset of 54 GCPII ligands compiled from the PDB

T1 sequence (Q04609 whole entry): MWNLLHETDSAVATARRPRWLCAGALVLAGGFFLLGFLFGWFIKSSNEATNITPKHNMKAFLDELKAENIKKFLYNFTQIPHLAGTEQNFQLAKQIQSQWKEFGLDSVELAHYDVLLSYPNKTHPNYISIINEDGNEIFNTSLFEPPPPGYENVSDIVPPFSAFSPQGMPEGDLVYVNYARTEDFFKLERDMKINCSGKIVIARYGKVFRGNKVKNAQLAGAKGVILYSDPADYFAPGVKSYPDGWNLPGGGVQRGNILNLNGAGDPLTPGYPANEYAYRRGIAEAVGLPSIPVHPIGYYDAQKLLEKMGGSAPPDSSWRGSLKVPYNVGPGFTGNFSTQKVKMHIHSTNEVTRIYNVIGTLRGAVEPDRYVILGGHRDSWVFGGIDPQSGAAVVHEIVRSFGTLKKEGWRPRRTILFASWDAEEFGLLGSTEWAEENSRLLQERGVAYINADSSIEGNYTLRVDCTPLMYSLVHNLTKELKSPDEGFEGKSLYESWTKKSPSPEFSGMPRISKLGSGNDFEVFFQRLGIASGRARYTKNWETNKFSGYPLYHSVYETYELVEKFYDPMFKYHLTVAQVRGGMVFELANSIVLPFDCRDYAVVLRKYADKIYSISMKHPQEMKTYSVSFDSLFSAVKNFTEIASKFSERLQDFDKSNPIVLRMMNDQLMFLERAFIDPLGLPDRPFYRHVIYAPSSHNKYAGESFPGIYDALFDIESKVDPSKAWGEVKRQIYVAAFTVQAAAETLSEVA

SMILES | inhibition at 20 µM [2, 4] [%] | further results
O=C(O)CC[C@H](NP(=O)(O)O)C(=O)O [CHEMBL241779] | – | IC50 [1, 3]: 0.86 nM
N[C@@H](CCC(=O)N[C@@H](COP(=O)(O)O[C@@H](CCC(=O)O)C(=O)O)C(=O)O)C(=O)O [CHEMBL1289263] | – | IC50 [1, 3]: 0.55 nM
O=C(O)CC[C@H](NP(=O)(O)OC[C@H](NC(=O)CC[C@H](NC(=O)CCCCCNC(=O)c1ccc(-c2c3ccc(=O)cc-3oc3cc(O)ccc23)c(C(=O)O)c1)C(=O)O)C(=O)O)C(=O)O [CHEMBL1921899] | – | IC50 [1, 3]: 0.41 nM
O=C(O)CC[C@H](NC(=O)N[C@@H](CCCC(=O)Nc1cccc(F)c1)C(=O)O)C(=O)O [CHEMBL4277729] | – | IC50 [1, 3]: 0.28 nM
CN(Cc1ccc(F)cc1)C(=O)CCC[C@H](NC(=O)N[C@@H](CCC(=O)O)C(=O)O)C(=O)O [CHEMBL4283406] | – | IC50 [1, 3]: 0.64 nM
O=C(O)CC[C@H](NC(=O)N[C@@H](CCCC(=O)N(CCNC(=O)c1ccc(F)cc1)c1ccccc1)C(=O)O)C(=O)O [CHEMBL4286872] | – | IC50 [1, 3]: 0.15 nM
CN(C(=O)CCC[C@H](NC(=O)N[C@@H](CCC(=O)O)C(=O)O)C(=O)O)c1ccc(F)cc1 [CHEMBL4288368] | – | IC50 [1, 3]: 0.2 nM
CN(Cc1cccc(F)c1)C(=O)CCC[C@H](NC(=O)N[C@@H](CCC(=O)O)C(=O)O)C(=O)O [CHEMBL4291245] | – | IC50 [1, 3]: 0.46 nM
O=C(O)CC[C@H](NC(=O)N[C@@H](CCCC(=O)NCCNC(=O)c1ccc(F)cc1)C(=O)O)C(=O)O [CHEMBL4294773] | – | IC50 [1, 3]: 0.94 nM
O=C(O)CCNC(=O)C(F)(F)C(F)(F)C(=O)NCCC(=O)O [Compound 1] | 0 | –
N[C@@H](Cn1oc(=O)[nH]c1=O)C(=O)O [Compound 2JBK] | – | IC50 [1, 5]: 9500 nM
O=C(O)CC[C@H](NC(=O)N[C@@H](CCCCn1cc(COCCOCCNc2ccc([N+](=O)[O-])cc2[N+](=O)[O-])nn1)C(=O)O)C(=O)O [Compound 2XEI] | – | IC50 [1, 5]: 0.54 nM
O=C(O)c1ccc(NC(=O)c2ccccc2C(=O)O)cc1O [Compound 2] | 0 | –
O=C(O)CC[C@H](C[P@@](=O)(O)CCC(=O)O)C(=O)O [Compound 3BHX] | – | IC50 [1, 5]: 0.7 nM
N[C@@H](CC[P@](=O)(O)C[C@@H](CCC(=O)O)C(=O)O)C(=O)O [Compound 3BI0] | – | IC50 [1, 5]: 14 nM
CN(Cc1cnc2nc(N)nc(N)c2n1)c1ccc(C(=O)N[C@H](CC[P@@](=O)(O)C[C@@H](CCC(=O)O)C(=O)O)C(=O)O)cc1 [Compound 3BI1, (2S)-2-{[(R)-[(3R)-3-carboxy-3-{[(4-{[(2,4-diaminopteridin-6-yl)methyl](methyl)amino}phenyl)carbonyl]amino}propyl](hydroxy)phosphoryl]methyl}pentanedioic acid] | – | IC50 [1, 5]: 0.12 nM
O=C(O)CC[C@H](NC(=O)N[C@@H](CSCc1ccc(F)cc1)C(=O)O)C(=O)O [Compound 3D7D] | – | IC50 [1, 5]: 14 nM

SMILES | inhibition at 20 µM [2, 4] [%] | further results
O=C(O)CC[C@H](NC(=O)N[C@@H](Cc1ccc(O)c(I)c1)C(=O)O)C(=O)O [Compound 3D7F] | – | IC50 [1, 5]: 0.5 nM
CSC[C@H](NC(=O)N[C@@H](CCC(=O)O)C(=O)O)C(=O)O [Compound 3D7G] | – | IC50 [1, 5]: 17 nM
CSCC[C@H](NC(=O)N[C@@H](CCCCNC(=O)c1ccc(I)cc1)C(=O)O)C(=O)O [Compound 3SJF] | – | IC50 [1, 5]: 23 nM
Cc1sc(NC(=O)CC(C)(C)CC(=O)Nc2sc(C)c(C)c2C(=O)O)c(C(=O)O)c1C [Compound 3] | 11 | –
O=C(O)CC[C@H](N[P@](=O)(O)OCCC[C@H](NC(=O)CC[C@H](NC(=O)c1ccc(F)cc1)C(=O)O)C(=O)O)C(=O)O [Compound 4LQG] | – | IC50 [1, 5]: 1.3 nM
CC(=O)N(CCCC[C@H](NC(=O)N[C@@H](CCC(=O)O)C(=O)O)C(=O)O)Cc1ccc(Br)cc1 [Compound 4NGM] | – | Ki [1, 6]: 0.0449 nM
O=CNCCCC[C@H](NC(=O)N[C@@H](CCC(=O)O)C(=O)O)C(=O)O [Compound 4NGN] | – | Ki [1, 6]: 0.268 nM
O=C(N[C@@H](CCCCNC(=O)c1ccc(I)cc1)C(=O)O)NC1(C(=O)O)CC1 [Compound 4OC0] | – | Ki [1, 6]: 318 nM
COc1ccc(N(CCC(=O)O)CCC(=O)O)cc1OC [Compound 4] | 2 | –
O=C(O)CSc1nnnn1-c1ccc(C(=O)O)cc1 [Compound 5] | 3 | –
Cc1sc(NC(=O)c2cc(C(=O)O)ccc2C(=O)O)c(C#N)c1C [Compound 6] | 4 | –
O=C(O)CCN(CCC(=O)O)c1ccccc1O [Compound 7] | 12 | –
COc1ccc([C@H](C)NC(=O)c2cc(C(=O)O)ccc2C(=O)O)cc1 [Compound 8] | 1 | –
O=C(O)CCC(=O)Nc1cc(C(=O)O)ccc1Br [Compound 9] | 0 | –
O=[N+]([O-])c1ccc([S@TB4](=O)(=O)Oc2cccc(O[S@TB17](=O)(=O)c3ccc([N+](=O)[O-])cc3)c2)cc1 [Compound 43] | – | inhibition at 20 µM [2]: 1%
O=C(O)c1ccc(CN2CC(C(=O)O)CC2=O)cc1 (stereo not shown) [Compound 45] | – | Inhibition [%] of GCPII activity [2, 4]: 1%
O=[N+]([O-])c1ccc([S@TB4](=O)(=O)Oc2ccc(O[S@TB17](=O)(=O)c3ccc([N+](=O)[O-])cc3)c(Br)c2)cc1 [Compound 50] | – | inhibition at 20 µM [2]: 1%

The next lines start with results.

inhibition at 20 µM [2, 4] [%] | SMILES | further results
0 | O=C(O)CCCC(=O)Nc1ccc(C(=O)O)cc1 [Compound 10] | –
0 | O=C(O)c1cccc(NC(=O)[C@H]2CC=CC[C@H]2C(=O)O)c1 [Compound 11] | –
0 | COc1ccc(OC)c(NC(=O)c2ccc(C(=O)O)cc2C(=O)O)c1 [Compound 12] | –
0 | COc1ccc(Cl)cc1NC(=O)c1ccc(C(=O)O)cc1C(=O)O [Compound 13] | –
0 | O=C(O)c1ccccc1CN[C@@H](Cc1c[nH]c2ccccc12)C(=O)O [Compound 14] | –
13 | N#Cc1c(NC(=O)c2ccc(C(=O)O)cc2C(=O)O)sc2c1CCCC2 [Compound 15] | –
0 | CCOc1ccc(NC(=O)c2cc(C(=O)O)ccc2C(=O)O)cc1 [Compound 16] | –
0 | O=C(O)CN[S@TB17](=O)(=O)c1ccc(C(=O)O)cc1 [Compound 19] | –
8 | O=C(O)Cn1c(COCc2nc3ccccc3n2CC(=O)O)nc2ccccc21 [Compound 20] | –
1 | O=C(O)CSc1nc2ccccc2n1CC(=O)O [Compound 21] | –
> 25 | CC(C)(CC(=O)Nc1scc(-c2cccs2)c1C(=O)O)CC(=O)Nc1scc(-c2cccs2)c1C(=O)O [Compound 22] | Inhibition [%] of GCPII activity [2, 4]: 38%
11 | O=C(O)CSc1ncccc1C(=O)O [Compound 23] | –
> 25 | O=C(O)c1cc(C(=O)O)c(C(=O)O)cc1C(=O)O [Compound 24] | Inhibition [%] of GCPII activity [2, 4]: 33%
0 | O=C(O)CN1CCC(C(=O)O)CC1 [Compound 25] | –
18 | CC(C)(CC(=O)Nc1scc(-c2ccccc2)c1C(=O)O)CC(=O)Nc1scc(-c2ccccc2)c1C(=O)O [Compound 26] | –
18 | O=C(O)CCN(CCC(=O)O)c1ccc(/C=C/c2ccnc3ccccc23)cc1 [Compound 27] | –
> 25 | Nc1cc(N)c(C(=O)O)cc1C(=O)O [Compound 28] | Inhibition [%] of GCPII activity [2, 4]: 29%
0 | Cc1cc(-c2ccc(NC(=O)CCC(=O)O)c(C)c2)ccc1NC(=O)CCC(=O)O [Compound 29] | –

inhibition at 20 µM [2, 4] [%] | SMILES | further results
0 | O=C(NCCCCCCNC(=O)[C@H]1CCCC[C@H]1C(=O)O)[C@H]1CCCC[C@H]1C(=O)O [Compound 30] | –
8 | O=C(O)c1ccc(CNCc2ccccc2C(=O)O)cc1 [Compound 31] | –
1 | O=C(O)CN[S@TB17](=O)(=O)c1cccc(C(=O)O)c1 [Compound 32] | –
0 | O=C(O)CNc1ccc(C(=O)O)cc1 [Compound 33] | –
2 | O=C(O)c1ccccc1NC(=O)[C@@H](O)[C@H](O)C(=O)O [Compound 34] | –
1 | O=C(O)CCCC(=O)Nc1cccc(C(=O)O)c1 [Compound 35] | –
3 | O=C(O)c1ccc(C(=O)NCCc2ccccc2)c(C(=O)O)c1 [Compound 36] | –
1 | O=C(O)c1ccc(C(=O)NCc2ccccc2)c(C(=O)O)c1 [Compound 37] | –
0 | CC(=O)c1ccc(NC(=O)c2ccc(C(=O)O)cc2C(=O)O)cc1 [Compound 38] | –
10 | CCCCc1ccc(NC(=O)c2ccc(C(=O)O)cc2C(=O)O)cc1 [Compound 39] | –
4 | O=C(O)c1ccc(C(=O)Nc2cc(Cl)ccc2Cl)c(C(=O)O)c1 [Compound 40] | –
0 | O=C(O)c1ccc(C(=O)Nc2ccc(Oc3ccccc3)cc2)c(C(=O)O)c1 [Compound 41] | –
1 | COc1ccc([S@TB4](=O)(=O)Oc2ccc(C(=O)O)cc2)cc1 [Compound 42] | –
0 | COc1cc(C(=O)O)ccc1O[S@TB17](=O)(=O)c1ccc(F)cc1 [Compound 44] | –
24 | Cc1c(C)c(CC(C(=O)O)C(=O)O)c(C)c(C)c1CC(C(=O)O)C(=O)O [Compound 47] | –
16 | O=C(/C=C/c1ccccc1)Oc1cc([S@TB3](=O)(=O)O)cc2cc([S@TB3](=O)(=O)O)ccc12 [Compound 48] | –
15 | CCCCc1nc(Cl)c(C(=O)O)n1Cc1ccc(-c2ccccc2-c2nnn[nH]2)s1 [Compound 49] | –
